Measurements: US8530465B2, “1, 2-disubstituted amido-anthraquinone derivatives, preparation method and application thereof” (National Defense Medical Center, priority 2010, dated 2013)

What was measured:
TK-10 = experiment: NCI drug screen, TK-10; type: cell-based, human; settings: TK-10 (Renal Cancer); 1.00E−5 Molar
Procedure: (§1) In brief, cellular protein levels were determined after 48 hours of drug exposure by sulforhodamine B colorimetry. Through the use of a time 0 cell control, the cell growth can be determined for each cell line thus allowing calculations of the 50% growth inhibitory concentration (GI50), the total growth inhibition (TGI), and the 50% lethal concentration (LC50). Comparison to plates not exposed to drug permits determination of concentration and times of exposure conferring 50% net growth inhibition (GI50), TGI, and 50% cell kill (LC50).
(§2) The screening system in United State National Cancer Institute (NCI) is consisted of 60 kinds of different human cancer cells, which can be used to assay the growth-inhibiting ability or cell toxicity of a compound against various cancer and tumor at a certain concentration.

SN12C = experiment: NCI drug screen, SN12C; type: cell-based, human; settings: SN12C (Renal Cancer); 1.00E−5 Molar
Procedure: as §1, §2

NCI/ADR-RES = experiment: NCI drug screen, NCI/ADR-RES; type: cell-based, human
Procedure: as §1, §2

HL-60(TB) = experiment: NCI drug screen, HL-60(TB); type: cell-based, human; settings: HL-60(TB) (Leukemia); 1.00E−5 Molar
Procedure: as §1, §2

PC-3 = experiment: NCI drug screen, PC-3; type: cell-based, human; settings: PC-3 (Prostate Cancer); 1.00E−5 Molar
Procedure: as §1, §2

IGROV1 = experiment: NCI drug screen, IGROV1; type: cell-based, human; settings: IGROV1 (Ovarian Cancer); 1.00E−5 Molar
Procedure: as §1, §2

HS 578-T = experiment: NCI drug screen, HS 578-T; type: cell-based, human; settings: HS 578-T (Breast Cancer); 1.00E−5 Molar
Procedure: as §1, §2

MOLT-4 = experiment: NCI drug screen, MOLT-4; type: cell-based, human; settings: MOLT-4 (Leukemia); 1.00E−5 Molar
Procedure: as §1, §2

[1] = tested on: 60 kinds of different human cancer cells; experiment: NCI in vitro 60-cell Drug Screen, whole panel; type: cell-based
Procedure: as §1
From the data analysis it follows that approximately 95% of the actives (potent anticancer drugs) from the 60 cell line screen can be identified. By these criteria, five compounds (each with its certification number, refer to FIG. 4) of the invention were reported that having anticancer activity.
as §2

EKVX = experiment: NCI drug screen, EKVX; type: cell-based, human; settings: EKVX (Non-Small Cell Lung Cancer); 1.00E−5 Molar
Procedure: as §1, §2

OVCAR-8 = experiment: NCI drug screen, OVCAR-8; type: cell-based, human; settings: OVCAR-8 (Ovarian Cancer); 1.00E−5 Molar
Procedure: as §1, §2

HCT-15 = experiment: NCI drug screen, HCT-15; type: cell-based, human; settings: HCT-15 (Colon Cancer); 1.00E−5 Molar
Procedure: as §1, §2

SK-MEL-2 = experiment: NCI drug screen, SK-MEL-2; type: cell-based, human; settings: SK-MEL-2 (Melanoma); 1.00E−5 Molar
Procedure: as §1, §2

OVCAR-3 = experiment: NCI drug screen, OVCAR-3; type: cell-based, human; settings: OVCAR-3 (Ovarian Cancer); 1.00E−5 Molar
Procedure: as §1, §2

SF-268 = experiment: NCI drug screen, SF-268; type: cell-based, human; settings: SF-268 (CNS Cancer); 1.00E−5 Molar
Procedure: as §1, §2

SK-MEL-28 = experiment: NCI drug screen, SK-MEL-28; type: cell-based, human; settings: SK-MEL-28 (Melanoma); 1.00E−5 Molar
Procedure: as §1, §2

OVCAR-5 = experiment: NCI drug screen, OVCAR-5; type: cell-based, human; settings: OVCAR-5 (Ovarian Cancer); 1.00E−5 Molar
Procedure: as §1, §2

A549/ATCC = experiment: NCI drug screen, A549/ATCC; type: cell-based, human; settings: A549/ATCC (Non-Small Cell Lung Cancer); 1.00E−5 Molar
Procedure: as §1, §2

NCI-H226 = experiment: NCI drug screen, NCI-H226; type: cell-based, human; settings: NCI-H226 (Non-Small Cell Lung Cancer); 1.00E−5 Molar
Procedure: as §1, §2

OVCAR-4 = experiment: NCI drug screen, OVCAR-4; type: cell-based, human; settings: OVCAR-4 (Ovarian Cancer); 1.00E−5 Molar
Procedure: as §1, §2

UACC-257 = experiment: NCI drug screen, UACC-257; type: cell-based, human; settings: UACC-257 (Melanoma); 1.00E−5 Molar
Procedure: as §1, §2

U251 = experiment: NCI drug screen, U251; type: cell-based, human; settings: U251 (CNS Cancer); 1.00E−5 Molar
Procedure: as §1, §2

HCC-2998 = experiment: NCI drug screen, HCC-2998; type: cell-based, human; settings: HCC-2998 (Colon Cancer); 1.00E−5 Molar
Procedure: as §1, §2

M14 = experiment: NCI drug screen, M14; type: cell-based, human; settings: M14 (Melanoma); 1.00E−5 Molar
Procedure: as §1, §2

SK-MEL-5 = experiment: NCI drug screen, SK-MEL-5; type: cell-based, human; settings: SK-MEL-5 (Melanoma); 1.00E−5 Molar
Procedure: as §1, §2

UO-31 = experiment: NCI drug screen, UO-31; type: cell-based, human; settings: UO-31 (Renal Cancer); 1.00E−5 Molar
Procedure: as §1, §2

MCF7 = experiment: NCI drug screen, MCF7; type: cell-based, human; settings: MCF7 (Breast Cancer); 1.00E−5 Molar
Procedure: as §1, §2

SNB-19 = experiment: NCI drug screen, SNB-19; type: cell-based, human; settings: SNB-19 (CNS Cancer); 1.00E−5 Molar
Procedure: as §1, §2

CAKI-1 = experiment: NCI drug screen, CAKI-1; type: cell-based, human; settings: CAKI-1 (Renal Cancer); 1.00E−5 Molar
Procedure: as §1, §2

LOX IMVI = experiment: NCI drug screen, LOX IMVI; type: cell-based, human; settings: LOX IMVI (Melanoma); 1.00E−5 Molar
Procedure: as §1, §2

786-0 = experiment: NCI drug screen, 786-0; type: cell-based, human; settings: 786-0 (Renal Cancer); 1.00E−5 Molar
Procedure: as §1, §2

K562 = experiment: NCI drug screen, K562; type: cell-based, human; settings: K562 (Leukemia); 1.00E−5 Molar
Procedure: as §1, §2

DU145 = experiment: NCI drug screen, DU145; type: cell-based, human; settings: DU145 (Prostate Cancer); 1.00E−5 Molar
Procedure: as §1, §2

In the case of `Cc1ccc(C(=O)Nc2c(NC(=O)CN3CCN(C)CC3)ccc3c2C(=O)c2ccccc2C3=O)cc1` [CC-43, 1-(4-methylbenzamido)-2-[2-(4-methylpiperazino)acetylamino]-anthraquinone], the “Growth Percent” value (TK-10) is reported as 101.93%, the “Growth Percent” value (SN12C) is reported as 63.31% and the “Growth Percent” value (NCI/ADR-RES; NCI/ADR-RES (Ovarian Cancer), 1.00E−5 Molar) is reported as 66.74%. For the same compound, the “drug-resistance against adriamycin (ADR)” value (NCI/ADR-RES; human multiple drug-resistant cell NCI/ADR-RES) was “possessed drug-resistance against adriamycin (ADR)”, the “Growth Percent” value (HL-60(TB)) was −8.54% and the “Growth Percent” value (PC-3) was 84.75%. The “Growth Percent” value (IGROV1) was 112.20%, the “Growth Percent” value (HS 578-T) was 87.29% and the “Growth Percent” value (MOLT-4) was 26.04%. The GI50 ([1]; Homo sapiens, 60 cell, NCI screen, FIG. 6, cell line not stated, read-out: 50% net growth inhibition (GI50)) was 130 nM, the “growth-inhibiting effect against cancer cells, by cancer type” value ([1]; NCI's screen, 1.00E−5 Molar) was “could inhibit the cancer cell growth of leukemia, melanoma, and ovarian cancer” and the “Growth Percent, Mean” value ([1]; mean over tested cell lines, 1.00E−5 Molar) was 46.71%. For the same compound, the “Growth Percent” value (EKVX) was 78.07%, the “Growth Percent” value (OVCAR-8) was 46.43% and the “Growth Percent” value (HCT-15) was 27.47%. The “Growth Percent” value (SK-MEL-2) was 123.64%, the “Growth Percent” value (OVCAR-3) was −6.15% and the “Growth Percent” value (SF-268) was 59.11%. For the same compound, the “Growth Percent” value (SK-MEL-28) was −57.56%, the “Growth Percent” value (OVCAR-5) was 106.66% and the “Growth Percent” value (A549/ATCC) was 83.89%. The “Growth Percent” value (NCI-H226) was 93.87%, the “Growth Percent” value (OVCAR-4) was 57.11% and the “Growth Percent” value (UACC-257) was −50.95%. The “Growth Percent” value (U251) was 22.38%, the “Growth Percent” value (HCC-2998) was 28.97% and the “Growth Percent” value (M14) was −60.04%. The “Growth Percent” value (SK-MEL-5) was 41.30%, the “Growth Percent” value (UO-31) was 70.66% and the “Growth Percent” value (MCF7) was 31.79%. For the same compound, the “Growth Percent” value (SNB-19) was 68.75%, the “Growth Percent” value (CAKI-1) was 69.76% and the “Growth Percent” value (LOX IMVI) was 1.24%. For the same compound, the “Growth Percent” value (786-0) was 11.90%, the “Growth Percent” value (K562) was −4.52% and the “Growth Percent” value (DU145) was 82.12%.
